These results are taken from patent US20140248212A1, “NON-IMMUNOGENIC POSITRON EMISSION TOMOGRAPHY REPORTER GENE SYSTEMS” (THE REGENTS OF THE UNIVERSITY OF CALIFORNIA, priority 2011, published 2014).

Data set [1] is described as follows: Biodistribution of PET reporter probes in mice (microPET/CT). It counts as in vivo, C57/BL6 mice. The method, then: To identify candidate PRPs, eight nucleoside analogs (FIG. 7A) were synthesized that were amenable to ^18F labeling (the first criterion for PRPs). To identify PRP candidates with rapid clearance from normal tissues and low overall background (second criterion for PRGs), biodistribution studies in mice were performed. It was observed that natural (D) nucleosides had higher background than non-natural (L) nucleoside analogs. […] The next step was to identify a human nucleoside kinase that phosphorylates L-[^18F]FMAU and L-[^18F]FEAU, and can be converted into a new PRG that matches four criteria:
Initially, a group of nucleoside analogs amenable to fluorine-18 labeling were identified. These PET tracers, 5 of which were novel, were then screened to determine their biodistribution in C57/BL6 mice (n=3 for each PET tracer) through dynamic microPET scans. […] Rational design is utilized to introduce mutations into human nucleoside kinase thymidine kinase 2 (TK2) to improve the affinity of the kinase for the top candidate probe. The sensitivity and specificity of the novel PET reporter probe/gene pair was then determined in vitro and in vivo using a murine cancer model.
Animal studies were approved and carried out according to specific guidelines. C57/BL6 mice were injected with the indicated probe and underwent micro-PET/CT analyses at 1- and 3-h post probe injection (Inveon, Siemens Medical Solutions USA Inc.; microCAT; Imtek Inc.). For tumor imaging studies, SCID mice were injected subcutaneously on day −7 in the right and left flanks with 1×10^6 L1210-PRG-expressing cells in 50% v/v phosphate-buffered saline and 50% v/v Matrigel™ (BD Biosciences). For imaging experiments, mice were kept warm and under gas anesthesia (2% v/v isoflurane) and were injected intravenously with 200 μCi of ^18F-labeled probes. A 3-h interval was allowed between probe administration and microPET/CT scanning Static microPET images were acquired for 600 s. Image data were evaluated in three-dimensional histograms and reconstructed with a zoom factor of 2.1 using three-dimensional ordered set expectation maximization (OSEM) with 2 iterations followed by MAP (maximum a posteriori) reconstruction with 18 iterations (beta=0.1). Images were analyzed using OsiriX Imaging Software Version 3.8.

For data set [2], the system named is TK2-N93D-expressing L1210 cells. Kind of data set: L-18F-FMAU uptake assay, transduced L1210 cells (TK2-N93D). It counts as cell-based, murine. The text has this: To overcome the negative feedback limitation of TK2, a point mutation-N93D, was engineered. The work done by Piskur and colleagues on the structurally related Drosophila melanogaster deoxyribonucleoside kinase (see, e.g. Welin, M., et al. FEBS J 272:3733-3742, 2005) led one to predict that the N93D mutation would reduce the feedback inhibition of TK2 by dTTP. This prediction was confirmed by a comparison between the wild type (WT) and the TK2-N93D mutant in a kinase assay in which increasing concentrations of dTTP were added to inhibit TK2 enzymatic activity (FIG. 8B). We then determined whether the enhanced resistance to feedback inhibition translates into improved TK2-N93D catalytic activity towards the L-[^18F]FMAU substrate. The murine leukemic cell line L1210 was engineered to express the WT and mutated PRG. PRG-expressing L1210 cell lines were sorted to similar levels of gene expression, using enhanced yellow fluorescent protein (eYFP) as a co-linked fluorescent marker. […] It was also examined whether the expression of TK2-N93D had detrimental effects on cellular physiology (criterion 4 for PRGs). […] In contrast, sr39tk overexpression induced a 4-fold increase in dTTP pools (FIG. 9C). […] These findings provide evidence that the utility of sr39tk is limited not only by its immunogenicity but also by its effects on normal cellular physiology.
The L1210 cell line (see, e.g. Jordheim, L. P., et al. (2004) Clin. Cancer Res. 10, 5614-5621) was a gift. Cells were cultured at 5% v/v CO2 and 37° C. in RPMI supplemented with 5% v/v FCS. […]
L1210 cells transduced with the indicated PET reporter genes (L1210-PRG) were seeded at a density of 500,000 cells/well in 24-well plates. […] Radioactivity was measured using a gamma counter.

Data set [3] relates to TK2-L109F-expressing L1210 cells. Kind of data set: L-18F-FMAU uptake assay, transduced L1210 cells (TK2-L109F). It counts as cell-based, murine. The conditions noted are these: in the presence of 5 μM D-dT. As to the method: The L1210 cell line (see, e.g. Jordheim, L. P., et al. (2004) Clin. Cancer Res. 10, 5614-5621) was a gift. Cells were cultured at 5% v/v CO2 and 37° C. in RPMI supplemented with 5% v/v FCS. Murine stem cell virus (pMSCV)-based helper-free retroviruses encoding the TK2 mutants (or sr39tk), an internal ribosomal entry site, and the yellow fluorescent protein (YFP) were produced by transient co-transfection of the amphotrophic retrovirus packaging cell line Phoenix (American Type Culture Collection, SD 3443) (see, e.g. Hawley, R. G., et al. (1994) Gene. Ther. 1, 136-138). L1210 cells underwent spinfection with the pMSCV-TK2 mutants-internal ribosomal entry site-YFP retrovirus with 2 μg/ml Polybrene (1000×g, 120 min, 37° C.). L1210 cells expressing various PRGs, (L1210-PRG) were FACS-sorted to ensure that each population had equivalent levels of PRG expression.
L1210 cells transduced with the indicated PET reporter genes (L1210-PRG) were seeded at a density of 500,000 cells/well in 24-well plates. 5 μCi of L-^18F-FMAU were added to the L1210-PRG cells simultaneously with the indicated amounts of D-thymidine (D-dT) at a final volume of 1 ml/well. After 1 h at 37° C., cells were harvested and washed four times with ice-cold PBS. Radioactivity was measured using a gamma counter.

Structures are written as SMILES. Entries after “also recorded” stand apart in the source; their conditions may differ.

Take `Cc1cn([C@H]2O[C@@H](CO)[C@H](O)[C@H]2[18F])c(=O)[nH]c1=O` [L-^18F-FMAU, 2′-deoxy-2′-^18F-5-methyl-1-β-L-arabinofuranosyluracil]: in data set [1] (1-h post injection (data not shown)), the “accumulation in the liver” value was “accumulates in the liver”. Besides, the “accumulation in the liver” value in data set [1] (3-h time point) is on record as “neither probe showed any accumulation”. Besides, in data set [1] (3 h after administration), the “accumulation in the gallbladder” value came to 1.68±0.46 % injected dose/g, the “retention in the thoracic cavity” value was “very low retention” and the “signals in the GI tract” value is listed as “only detected in the lower GI tract”. In addition, in data set [1] (candidate 18F nucleoside analog probes in mice, FIG. 7B), the “overall background (biodistribution)” value is recorded as “lowest overall background”. Further, the “non-specific GI signals” value in data set [1] (increasing uptake time from 1 to 3 hours) is on record as “almost completely eliminated”. Further, the “GI activity compared with 18F-FHBG-injected mice” value in data set [1] (mice) is “significantly less intense”. The “increase in L-18F-FMAU uptake relative to cells expressing WT TK2” value in data set [2] (1 h uptake, FIG. 27C) worked out at 1.5 fold. Besides, the “L-[18F]FMAU accumulation compared to WT TK2 transduced cells” value in data set [2] (FIG. 8C) was “increased accumulation; also recorded: increased uptake”. Also, the “decrease of L-18F-FMAU uptake” value in data set [2] (in the presence of 5 μM D-dT) amounted to 75%. Further, in data set [3], the “L-18F-FMAU uptake as percentage of the corresponding uptake for TK2-N93D/L109F” value stood at 31% and the “decrease of L-18F-FMAU uptake” value worked out at 37%.
